# Paper PMC3699650, “Structural Insights into the Abscisic Acid Stereospecificity by the ABA Receptors PYR/PYL/RCAR” (PLoS ONE, 2013)
# Experiments:
# PYL9 (with HAB1) [1] = target: T1, PYL9 (with HAB1) (Arabidopsis thaliana, UniProt Q84MC7); experiment: HAB1 phosphatase inhibition assay; format: biochemical; details: Hepes pH 7.5, 30 °C
# T1 construct: PYL9 from E. coli BL21(DE3), pET-28a or pGEX-4T-2 (TEV site), IMAC and SEC, monomer; HAB1 residues 169-511, GST cut by TEV; with Protein phosphatase 2C 16
# T1 sequence (Q84MC7 1-187): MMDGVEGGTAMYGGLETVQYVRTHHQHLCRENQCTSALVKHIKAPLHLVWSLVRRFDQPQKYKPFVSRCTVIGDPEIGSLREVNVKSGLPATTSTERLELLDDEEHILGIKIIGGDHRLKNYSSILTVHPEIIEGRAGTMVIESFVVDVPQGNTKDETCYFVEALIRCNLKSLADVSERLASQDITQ
# T1 sequence (Q9CAJ0 169-511 partner): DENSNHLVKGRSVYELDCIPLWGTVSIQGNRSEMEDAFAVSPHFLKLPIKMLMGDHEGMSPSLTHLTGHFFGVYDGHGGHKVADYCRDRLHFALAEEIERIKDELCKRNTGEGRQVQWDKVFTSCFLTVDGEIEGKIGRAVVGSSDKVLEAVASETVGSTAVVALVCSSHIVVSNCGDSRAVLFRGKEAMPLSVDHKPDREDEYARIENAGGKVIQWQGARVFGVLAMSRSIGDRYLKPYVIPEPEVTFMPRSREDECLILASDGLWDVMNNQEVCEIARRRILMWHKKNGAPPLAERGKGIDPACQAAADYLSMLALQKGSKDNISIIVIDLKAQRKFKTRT
# PYL1 (with HAB1) = target: T2, PYL1 (with HAB1) (Arabidopsis thaliana, UniProt Q8VZS8); experiment: HAB1 phosphatase inhibition assay (phosphopeptide, molybdate); format: biochemical
# T2 construct: PYL1 from E. coli BL21(DE3), pET-28a or pGEX-4T-2 (TEV site), IMAC and SEC; HAB1 residues 169-511, GST cut by TEV; with Protein phosphatase 2C 16
# T2 sequence (Q8VZS8 2-221): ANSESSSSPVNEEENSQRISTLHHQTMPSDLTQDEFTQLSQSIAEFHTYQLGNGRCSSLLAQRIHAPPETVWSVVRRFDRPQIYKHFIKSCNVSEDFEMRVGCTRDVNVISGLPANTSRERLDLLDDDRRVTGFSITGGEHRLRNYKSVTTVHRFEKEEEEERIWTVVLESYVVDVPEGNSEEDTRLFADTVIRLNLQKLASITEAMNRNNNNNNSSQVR
# T2 sequence (Q9CAJ0 169-511 partner): T1 sequence (Q9CAJ0 169-511 partner)
# PYL2 (with HAB1) = target: T3, PYL2 (with HAB1) (Arabidopsis thaliana, UniProt O80992); experiment: as above; format: biochemical
# T3 construct: PYL2 from E. coli BL21(DE3), pET-28a or pGEX-4T-2 (TEV site), IMAC and SEC; HAB1 residues 169-511, GST cut by TEV; with Protein phosphatase 2C 16
# T3 sequence (O80992 1-190): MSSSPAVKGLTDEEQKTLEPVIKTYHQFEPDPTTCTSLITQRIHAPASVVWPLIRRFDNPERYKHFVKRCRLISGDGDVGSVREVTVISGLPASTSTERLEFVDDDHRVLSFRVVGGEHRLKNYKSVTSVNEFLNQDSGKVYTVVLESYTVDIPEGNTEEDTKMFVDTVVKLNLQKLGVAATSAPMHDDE
# T3 sequence (Q9CAJ0 169-511 partner): T1 sequence (Q9CAJ0 169-511 partner)
# PYL10 (with HAB1) = target: T4, PYL10 (with HAB1) (Arabidopsis thaliana, UniProt Q8H1R0); experiment: as above; format: biochemical
# T4 construct: PYL10 from E. coli BL21(DE3), pET-28a or pGEX-4T-2 (TEV site), IMAC and SEC; HAB1 residues 169-511, GST cut by TEV; with Protein phosphatase 2C 16
# T4 sequence (Q8H1R0 1-183): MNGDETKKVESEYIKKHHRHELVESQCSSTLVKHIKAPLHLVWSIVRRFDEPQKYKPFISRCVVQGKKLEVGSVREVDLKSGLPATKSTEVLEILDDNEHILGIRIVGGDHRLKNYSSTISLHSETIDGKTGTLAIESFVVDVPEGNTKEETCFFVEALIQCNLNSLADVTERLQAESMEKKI
# T4 sequence (Q9CAJ0 169-511 partner): T1 sequence (Q9CAJ0 169-511 partner)
# PYL3 = target: T5, PYL3 (Arabidopsis thaliana, UniProt Q9SSM7); experiment: isothermal titration calorimetry; format: binding; details: 20 °C, 20 mM Tris-HCl pH 8.0, 150 mM NaCl; 0.3 mM (−)-ABA into 0.22 mM PYL3
# T5 construct: apo mainly dimer
# T5 sequence (Q9SSM7 1-209): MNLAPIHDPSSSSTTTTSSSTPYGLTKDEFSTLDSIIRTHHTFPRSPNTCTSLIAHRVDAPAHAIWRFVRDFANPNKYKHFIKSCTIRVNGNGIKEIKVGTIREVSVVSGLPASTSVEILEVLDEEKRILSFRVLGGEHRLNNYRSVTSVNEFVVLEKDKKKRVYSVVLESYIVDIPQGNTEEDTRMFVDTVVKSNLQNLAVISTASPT
# PYL6 (with HAB1) = target: T6, PYL6 (with HAB1) (Arabidopsis thaliana, UniProt Q8S8E3); experiment: HAB1 phosphatase inhibition assay (phosphopeptide, molybdate); format: biochemical
# T6 construct: PYL6 from E. coli BL21(DE3), pET-28a or pGEX-4T-2 (TEV site), IMAC and SEC; HAB1 residues 169-511, GST cut by TEV; with Protein phosphatase 2C 16
# T6 sequence (Q8S8E3 1-215): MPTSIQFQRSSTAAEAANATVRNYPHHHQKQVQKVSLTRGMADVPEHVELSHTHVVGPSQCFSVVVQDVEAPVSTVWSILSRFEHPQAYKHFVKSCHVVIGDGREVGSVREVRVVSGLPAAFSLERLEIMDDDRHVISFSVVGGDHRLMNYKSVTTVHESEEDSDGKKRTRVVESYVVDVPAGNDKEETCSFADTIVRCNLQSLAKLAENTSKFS
# T6 sequence (Q9CAJ0 169-511 partner): T1 sequence (Q9CAJ0 169-511 partner)
# PYL8 (with HAB1) = target: T7, PYL8 (with HAB1) (Arabidopsis thaliana, UniProt Q9FGM1); experiment: as above; format: biochemical
# T7 construct: PYL8 from E. coli BL21(DE3), pET-28a or pGEX-4T-2 (TEV site), IMAC and SEC; HAB1 residues 169-511, GST cut by TEV; with Protein phosphatase 2C 16
# T7 sequence (Q9FGM1 1-188): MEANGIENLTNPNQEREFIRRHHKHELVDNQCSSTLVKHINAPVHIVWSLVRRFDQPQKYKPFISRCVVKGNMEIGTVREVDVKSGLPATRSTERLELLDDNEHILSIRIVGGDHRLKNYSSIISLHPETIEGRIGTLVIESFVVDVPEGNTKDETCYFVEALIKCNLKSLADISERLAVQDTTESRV
# T7 sequence (Q9CAJ0 169-511 partner): T1 sequence (Q9CAJ0 169-511 partner)
# PYL4 (with HAB1) = target: T8, PYL4 (with HAB1) (Arabidopsis thaliana, UniProt O80920); experiment: as above; format: biochemical
# T8 construct: PYL4 from E. coli BL21(DE3), pET-28a or pGEX-4T-2 (TEV site), IMAC and SEC; HAB1 residues 169-511, GST cut by TEV; with Protein phosphatase 2C 16
# T8 sequence (O80920 1-207): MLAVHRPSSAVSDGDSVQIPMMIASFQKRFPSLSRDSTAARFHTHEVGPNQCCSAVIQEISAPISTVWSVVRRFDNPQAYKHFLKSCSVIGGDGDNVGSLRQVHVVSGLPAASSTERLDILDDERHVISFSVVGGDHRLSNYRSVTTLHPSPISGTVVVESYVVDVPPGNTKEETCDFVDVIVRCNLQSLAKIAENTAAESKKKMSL
# T8 sequence (Q9CAJ0 169-511 partner): T1 sequence (Q9CAJ0 169-511 partner)
# PYL5 (with HAB1) = target: T9, PYL5 (with HAB1) (Arabidopsis thaliana, UniProt Q9FLB1); experiment: as above; format: biochemical
# T9 construct: PYL5 from E. coli BL21(DE3), pET-28a or pGEX-4T-2 (TEV site), IMAC and SEC, monomer; HAB1 residues 169-511, GST cut by TEV; with Protein phosphatase 2C 16
# T9 sequence (Q9FLB1 1-203): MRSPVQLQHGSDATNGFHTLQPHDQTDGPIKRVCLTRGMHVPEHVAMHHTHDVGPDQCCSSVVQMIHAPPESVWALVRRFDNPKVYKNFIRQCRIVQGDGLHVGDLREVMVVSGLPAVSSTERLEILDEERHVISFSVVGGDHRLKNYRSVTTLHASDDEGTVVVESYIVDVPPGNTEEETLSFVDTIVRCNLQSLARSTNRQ
# T9 sequence (Q9CAJ0 169-511 partner): T1 sequence (Q9CAJ0 169-511 partner)
# PYL9 (with HAB1) [2] = target: T1, PYL9 (with HAB1); experiment: as above; format: biochemical
# PYR1 (with HAB1) = target: T10, PYR1 (with HAB1) (Arabidopsis thaliana, UniProt O49686); experiment: as above; format: biochemical
# T10 construct: PYR1 from E. coli BL21(DE3), pET-28a or pGEX-4T-2 (TEV site), IMAC and SEC; HAB1 residues 169-511, GST cut by TEV; with Protein phosphatase 2C 16
# T10 sequence (O49686 1-191): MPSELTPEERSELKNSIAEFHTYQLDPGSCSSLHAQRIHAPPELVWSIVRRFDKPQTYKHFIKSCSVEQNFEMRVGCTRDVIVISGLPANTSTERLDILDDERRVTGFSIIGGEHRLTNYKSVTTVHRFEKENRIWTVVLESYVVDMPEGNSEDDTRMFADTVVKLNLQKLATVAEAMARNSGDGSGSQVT
# T10 sequence (Q9CAJ0 169-511 partner): T1 sequence (Q9CAJ0 169-511 partner)
structure (smiles),measurement,setting,value
CC1=CC(=O)CC(C)(C)[C@@]1(O)/C=C/C(C)=C/C(=O)O [(+)-ABA],HAB1 phosphatase inhibition assay,PYL9 (with HAB1) [1],PYL9 can inhibit HAB1 in the presence of (+)-ABA
CC1=CC(=O)CC(C)(C)[C@]1(O)/C=C/C(C)=C\C(=O)O [(−)-ABA],IC50,PYL1 (with HAB1),3100 nM
same,IC50,PYL2 (with HAB1),2500 nM
same,IC50,PYL10 (with HAB1),15000 nM
same,binding affinity,PYL3,ITC results showed that the binding affinity of (−)-ABA to PYL3 was less
same,IC50,PYL6 (with HAB1),470 nM
same,IC50,PYL8 (with HAB1),1600 nM
same,IC50,PYL4 (with HAB1),480 nM
same,IC50,PYL5 (with HAB1),170 nM
same,IC50,PYL9 (with HAB1) [2],> 10000 nM
same,IC50,PYR1 (with HAB1),4500 nM
